Experimental data reported in patent publication US20210123016A1, “REGULATORS OF HUMAN PLURIPOTENT STEM CELLS AND USES THEREOF” (Novartis AG, priority 2018, published 2021).
“Also recorded” adds a separate entry of the source.

Key:
iCas9 H1-hESCs [1] = test: Phalloidin stain of filamentous (F-) ACTIN in fixed cells after dissociation; type: cell-based, human; conditions: thiazovivin treated cells after dissociation, stain at 3.5 h
Procedure: Immunofluorescence staining of fixed cells was performed as described by Ihry et. al., 2017. Protein lysates were made by vortexing cell pellets in […] (Thermo Scientific 89901) supplemented with Halt protease inhibitor cocktail (Thermo Scientific 78430) and phosphatase inhibitors (Thermo Scientific 1862495). Samples were incubated at 4 C for 10 minutes before centrifugation at 14,000×g for 10 minutes at 4 C. Supernatants were transferred to new tubes and quantified using the BCA protein assay kit (Thermo Scientific 23225) and a SpectraMax Paradigm (Molecular Devices) plate reader. Samples were prepared with NuPAGE LDS sample buffer 4× (Invitrogen NP0008) and NuPAGE sample reducing agent (Invitrogen NP0009) and heated for 10 minutes at 70 C. Chameleon Duo Pre-stained Protein Ladder (LiCOR P/N 928-60000) was loaded alongside 10 ug of protein per sample on a NuPAGE 4-12% Bis-Tris Protein Gels, 1.5 mm, 10-well (Invitrogen NP0335BOX). Gel electrophoresis was performed at 150 V for 1 hr in NuPAGE MOPS SDS Running buffer (20×) (Invitrogen NP0001) using a XCell SureLock Mini-Cell (Thermo Scientific E10002). Transfer was performed using an iBlot 2 dry blotting system (Thermo IB21002 and IB23002) as described by manufacturer. Blots were blocked in TBS blocking buffer (LiCOR 927-50000) for 1 hour at room temperature. […]

iCas9 H1-hESCs [2] = test: Assaying survival without ROCK inhibitor (single cell dissociation and replating, IncuCyte confluence / time-lapse); type: cell-based, human; conditions: control and PAWR knockout hPSCs, in the presence of thiazovivin (ROCK inhibitor)
Procedure: Control and mutant iCas9 H1-hESCs were dissociated with accutase for 10 minutes. Flowmi 40-micron cell strainers (BEL-ART H13680-0040) were used to ensure a uniform single cell suspension prior to replating cells. Cells were plated at a density of 10,500 to 21,000 cells/cm^2 plus or minus thiazovivin (ROCK inhibitor). Timelapse images were taken in 1 hr intervals using IncuCyte zoom (Essen Biosciences). The confluence processing analysis tool (IncuCyte Zoom Software) calculated confluency for each sample.

O=C(NCc1ccccc1)c1csc(Nc2ccncn2)n1 [thiazovivin]
cytoskeletal organization (F-ACTIN, phalloidin) (iCas9 H1-hESCs [1]): increased surface area, a fanned-out shape with actin stress fibers, and a large circular adhesion belt-like structure
survival after single cell dissociation and replating (iCas9 H1-hESCs [2]): survive replating; also recorded: survived as single cells
